Measured values from patent US11203577B2, “Sulfonyl-structure-containing triazinone derivatives, their preparation methods and their uses in insect killing and/or bacterium killing” (Nankai University, priority 2017, dated 2021).
Read-outs that look alike come from different tables or passages of the source.

Columns and labels:
Watermelon anthracnose = experiment: In vitro fungicidal activity, PDA colony diameter; type: cell-based; conditions: read-out: Fungicidal activity (%) Watermelon anthracnose
Sclerotinia rot of colza = experiment: In vitro fungicidal activity, PDA colony diameter; type: cell-based; conditions: 96 h, read-out: Fungicidal activity (%) Sclerotinia rot of colza
Wheat head blight = experiment: whole plant or invertebrate; type: cell-based; conditions: Triticum aestivum, read-out: Fungicidal activity (%) Wheat head blight
Rice bakanae disease = experiment: In vitro fungicidal activity, PDA colony diameter; type: cell-based; conditions: read-out: Fungicidal activity (%) Rice bakanae disease
[1] = test system: Cercospora brown spot of peanut; experiment: In vitro fungicidal activity, PDA colony diameter; type: cell-based; conditions: 96 h, read-out: Fungicidal activity (%) Cercospora brown spot of peanut
Cotton bollworms = experiment: Test of insecticidal activity against cotton bollworms (pesticide mixed into feedstuff); conditions: read-out: Mortalities (%) Cotton bollworms
Method: Method of testing against cotton bollworms: the pesticide is mixed into the feedstuff, i.e., 3 mL prepared solution is added into about 27 g freshly prepared feedstuff; thus, required concentration is obtained by diluting by 10 times.

[2] = test system: bean aphides (Aphis laburni Kaltenbach); experiment: Test of insecticidal activity against aphides (leaf immersion, checked after 96 h); conditions: 96 h; for mortality at 10 mg/kg / mortality at 100 mg/kg / mortality at 600 mg/kg / mortality at 2.5 mg/kg / mortality at 5 mg/kg: Aphis, read-out: Mortalities (%) against aphides
Method: The insecticidal activity against aphides is tested through the following steps: the tested aphides are bean aphides (Aphis laburni Kaltenbach), a normal colony fed with broad bean leaves in a laboratory. The pesticide is weighed, 1 mL DMF is added to dissolve the pesticide, then two drops of emulsifier, Tween-20 are added, and distilled water is added in an appropriate amount; the mixture is stirred to a homogeneous state to prepare pesticide solution at required concentration (see the following table for the specific concentration). […] In a control group, only emulsifier and solvent are added into distilled water, and the mixture is stirred to a homogeneous state.

Cucumber fusarium wilt = experiment: In vitro fungicidal activity, PDA colony diameter; type: cell-based; conditions: 96 h, read-out: Fungicidal activity (%) Cucumber fusarium wilt
Wheat sheath blight = experiment: In vitro fungicidal activity, PDA colony diameter; type: cell-based; conditions: read-out: Fungicidal activity (%) Wheat sheath blight
Tomato early blight = experiment: In vitro fungicidal activity, PDA colony diameter; type: cell-based, Alternaria solani; conditions: read-out: Fungicidal activity (%) Tomato early blight
[3] = test system: Corn southern leaf blight; experiment: In vitro fungicidal activity, PDA colony diameter; type: cell-based; conditions: read-out: Fungicidal activity (%) Corn southern leaf blight
Armyworms = experiment: Test of insecticidal activity against armyworms (leaf immersion); conditions: 600 mg/kg, 3-4 days
[4] = test system: a variety of pathogenic fungi; experiment: In vitro fungicidal activity, summary over the tested fungi; type: cell-based; conditions: 50 mg/kg
Method: Here, the test is described in an example of Alternaria solani; it can be replaced by other fungi.
In vitro testing method: Alternaria solani is inoculated to a PDA culture medium and cultured for 7 days, a fungus dish with a diameter of […] is prepared on the periphery of the colony with a punch and inoculated to a PDA culture medium that contains pesticide at a concentration of 50 mg/kg and a PDA culture medium that doesn't contain the pesticide, and are cultured for 4 days respectively; then, the colony diameters are measured, and the inhibition percentages of the pesticides are calculated by comparing with the control sample.

Rice sheath blight = experiment: In vitro fungicidal activity, PDA colony diameter; type: cell-based; conditions: read-out: Fungicidal activity (%) Rice sheath blight
Potato late blight = experiment: microbe, parasite or virus in culture; type: cell-based; conditions: Phytophthora infestans, 96 h, read-out: Fungicidal activity (%) Potato late blight
[5] = test system: mosquito larvae (Culer pipiens pallens); experiment: Test of insecticidal activity against mosquito larvae (checked after 24 h); conditions: 24 h, read-out: Mortalities (%) against mosquito larvae
Apple ring rot = experiment: In vitro fungicidal activity, PDA colony diameter; type: cell-based; conditions: inhibition of colony diameter
Outline: (§1)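 Percent growth inhibition derived from colony diameter versus compound-free PDA control after 4 days' culture. Plates contained compound at 50 mg/kg; inoculum was a plug taken from the periphery of a 7-day PDA culture.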

[6] = test system: Capsicum phytophthora blight; experiment: In vitro fungicidal activity, PDA colony diameter; type: cell-based; conditions: 96 h
Outline: as §1

Maize borers = experiment: Test of insecticidal activity against maize borers (leaf immersion); conditions: read-out: Mortalities (%) Maize borers
[7] = 50 mg/kg, inhibition of colony diameter

| Compound | inhibition at 50 mg/kg (Watermelon anthracnose; [7]) [%] | inhibition of growth at 50 mg/kg (Sclerotinia rot of colza; [7]) [%] | inhibition at 50 mg/kg (Wheat head blight) [%] | inhibition at 50 mg/kg (Rice bakanae disease; [7]) [%] | inhibition of growth at 50 mg/kg [1, 7] [%] | mortality at 600 mg/kg (Cotton bollworms) [%] | mortality at 10 mg/kg [2] [%] | mortality at 100 mg/kg [2] [%] | mortality at 600 mg/kg [2] [%] | inhibition of growth at 50 mg/kg (Cucumber fusarium wilt; [7]) [%] | inhibition at 50 mg/kg (Wheat sheath blight; [7]) [%] | inhibition at 50 mg/kg (Tomato early blight; [7]) [%] | inhibition at 50 mg/kg [3, 7] [%] | Mortalities (%) Armyworms (Armyworms) [%] | inhibition at 50 mg/kg (Rice sheath blight; [7]) [%] | inhibition of growth at 50 mg/kg (Potato late blight) [%] | mortality at 10 mg/kg [5] [%] | inhibition at 50 mg/kg (Apple ring rot) [%] | inhibition of growth at 50 mg/kg [6] [%] | mortality at 600 mg/kg (Maize borers) [%] | further results |
| --- | --- | --- | --- | --- | --- | --- | --- | --- | --- | --- | --- | --- | --- | --- | --- | --- | --- | --- | --- | --- | --- |
| CCCCS(=O)(=O)NN1CC(C)=NNC1=O [Ia-4, N-(6-methyl-3-oxo-2,3-dihydro-1,2,4-triazin-4(5H)-yl)-n-butylsulfonamide] | 25 | 48.3 | 6.7 | 38.9 | 15.8 | 0 | 20 | 70 | 85 | 0 | 70.5 | 14.3 | 33.3 | 5 | 34.9 | 40.7 | 20 | 31 | 46.9 | 5 | fungicidal activity against a variety of pathogenic fungi [4]: outstanding fungicidal activity |
| CC1=NNC(=O)N(NS(=O)(=O)c2ccc(C)cc2)C1 [Ia-12, 4-methyl-N-(6-methyl-3-oxo-2,3-dihydro-1,2,4-triazin-4(5H)-yl)-benzenesulfonamide] | 33.3 | 70 | 13.3 | 27.8 | 42.1 | 30 | 100 | 100 | 100 | 25 | 72.7 | 33.3 | 33.3 | 15 | 27 | 29.6 | 100 | 41.4 | 40.8 | 10 | mortality at 2.5 mg/kg [2]: 30%; mortality at 5 mg/kg [2]: 100%; fungicidal activity against a variety of pathogenic fungi [4]: outstanding fungicidal activity; mortality at 2 mg/kg [5]: 10%; mortality at 5 mg/kg [5]: 100% |
| CC1=NNC(=O)N(N(S(=O)(=O)c2ccccc2)S(=O)(=O)c2ccccc2)C1 [Ib-5, N-(6-methyl-3-oxo-2,3-dihydro-1,2,4-triazin-4(5H)-yl)-N-(benzenesulfonyl)-benzenesulfonamide] | 20.8 | 40 | 10 | – | 36.8 | 20 | 50 | 90 | 100 | 15 | 68.2 | 38.1 | 25 | 40 | 27 | 22.2 | 60 | 44.8 | 42.9 | 25 | inhibition at 50 mg/kg (Rice bakanae disease): 22.2%; mortality at 5 mg/kg [2]: 10%; fungicidal activity against a variety of pathogenic fungi [4]: outstanding fungicidal activity |
| CC1=NNC(=O)N(N(S(=O)(=O)c2ccc([N+](=O)[O-])cc2)S(=O)(=O)c2ccc([N+](=O)[O-])cc2)C1 [Ib-7, N-(6-methyl-3-oxo-2,3-dihydro-1,2,4-triazin-4(5H)-yl)-4-nitro-N-(4-nitrobenzenesulfonyl)-benzenesulfonamide] | – | – | 23.3 | – | – | 40 | 25 | 85 | 100 | – | – | – | – | 20 | – | 25.9 | 60 | 0 | 36.7 | 15 | inhibition at 50 mg/kg (Watermelon anthracnose): 20.8%; inhibition of growth at 50 mg/kg (Sclerotinia rot of colza): 30%; inhibition at 50 mg/kg (Rice bakanae disease): 44.4%; inhibition of growth at 50 mg/kg [1]: 21.1%; inhibition of growth at 50 mg/kg (Cucumber fusarium wilt): 5%; inhibition at 50 mg/kg (Wheat sheath blight): 59.1%; inhibition at 50 mg/kg (Tomato early blight): 23.8%; inhibition at 50 mg/kg [3]: 12.5%; inhibition at 50 mg/kg (Rice sheath blight): 27% |
| CC(=O)Nc1ccc(S(=O)(=O)N(N2CC(C)=NNC2=O)S(=O)(=O)c2ccc(NC(C)=O)cc2)cc1 [Ib-8, 4-acetamido-N-(6-methyl-3-oxo-2,3-dihydro-1,2,4-triazin-4(5H)-yl)-N-(4-acetamidobenzenesulfonyl)-benzenesulfonamide] | 12.5 | 33.3 | 0 | 22.2 | 15.8 | 15 | – | 50 | 90 | 0 | 45.5 | 23.8 | 16.7 | 20 | 27 | 29.6 | 30 | 27.6 | 20.4 | 15 | – |
| CC1=NNC(=O)N(N(S(=O)(=O)c2cccnc2)S(=O)(=O)c2cccnc2)C1 [Ib-9, N-(6-methyl-3-oxo-2,3-dihydro-1,2,4-triazin-4(5H)-yl)-N-(pyrid-3-yl-sulfonyl)pyridyl-3-sulfonamide] | 3.1 | 12.5 | 21.2 | 0 | 19.2 | 5 | 20 | 80 | 95 | 7.7 | 15.1 | 25 | 5.6 | 15 | 26.8 | 14.3 | 10 | 21.4 | 11.5 | 10 | – |
| CC1=NNC(=O)N(/N=C/c2cccnc2)C1 [Pymetrozine, reference compound] | 16.7 | 31.7 | 13.3 | 33.3 | 15.8 | 20 | 90 | 100 | 100 | 5 | 63.6 | 23.8 | 16.7 | 50 | 19 | 22.2 | 100 | 27.6 | 36.7 | 35 | Mortalities (%) against aphides ([2]; 2.5 mg/kg): no insecticidal activity; mortality at 2.5 mg/kg [2]: 0%; mortality at 5 mg/kg [2]: 30%; mortality at 5 mg/kg [5]: 40% |
